Data: patent US20260306502A1, “MITOCHONDRIAL UNCOUPLERS FOR TREATMENT OF METABOLIC DISEASES AND CANCER” (Mito Biopharma, LLC, priority 2022, published 2026)
“Also recorded” adds a separate entry of the source.

What was measured:
[1] = test system: high-fat diet (HFD)-induced diabetic mouse model; experiment: Efficacy in high-fat diet (HFD)-induced diabetic/fatty liver mouse model; type: in vivo; settings: HFD mice, 3 weeks; for reversing fatty liver (liver steatosis, H&E histology): 5 mg/kg PO daily
Method: For HFD induced diabetic mouse model, C57Bl6 mice (male, n=6) were induced to obese and diabetic conditions by feeding high-fat diet (HFD, 60% fat calories, Research Diet, Inc. New Brunswick, NJ) for 3-4 months. […] During the 3-week period, the mice continued feeding HFD. […] The blood glucose levels were measured after an overnight fast, plasma insulin levels were tested after 5-6 hours fast, and the glycated HbA1c levels were determined in whole blood samples.
FIG. 15C and FIG. 15D show liver sections from mice fed HFD following 3 weeks of treatment with Compounds 25 and 64, respectively (P.O. dosing of 5 mg/kg, by daily gavage).
Experiments were similarly performed with other compounds, in either high-fat diet induced diabetes and fatty liver models, or in db/db mouse model, or in both, by daily oral gavage administration with low dosages.

[2] = test system: cultured mammalian cells, the NIH-3T3 cells, C2C12 cells, and other mammalian cell lines; experiment: Mitochondrial membrane potential (MMP) assay, TMRE (or DilC1(5)) staining, related to OCR induction; type: cell-based; settings: in words; TMRE and DilC1(5) staining
Method: Mitochondrial membrane potential assay was performed using the standard TMRE (tetramethylrhodamine ethyl ester) staining method with cultured mammalian cells, the NIH-3T3 cells, C2C12 cells, and other mammalian cell lines. Cells were seeded in 6-well plates and cultured in DMEM medium supplemented with 10% fetal bovine serum and 2 mM glutamine. Cells were allowed to grow to the logarithmic growth phase prior to experiments. The cells were treated with each individual compound at various concentrations for two hours, followed by staining with TMRE at a final concentration of 100 nM for 15 minutes. The cells were then washed once with PBS, and examined under fluorescence microscopy. Cells treated with various concentrations of niclosamide ethanolamine were used as a positive control.
In some examples, mitochondrial membrane potential was measured with DilC1(5) staining. Briefly, DilC1(5) was added to the cells to 50 nM final concentration and the cells were incubated at 37° C., 5% CO2, for 15 to 30 minutes. Cells were washed once by adding 2 mL of warm phosphate-buffered saline (PBS). Mitochondrial staining was determined by fluorescence microscopy with 633 nm excitation using standard filters for far-red emission.
Using the ratio between C10% TMRE (the concentration at which 10% MMP remains, i.e. 90% MMP is lost) and Cmin-OCR (the concentration at which minimal OCR induction is observed), we categorized the MMP-retaining uncouplers into two groups.

C57Bl6 mice = experiment: Determination of acute toxicity; settings: in words
Method: Acute toxicity tests were performed on C57Bl6 mice, male, 6 weeks old, n=6. […] The tests were performed under fed condition, by oral gavage of 100-400 μL compound suspension according to the body weight to desired dosages (mg/kg). The mice were supplied with drinking water all through the testing time. […] MED was determined in diabetic and steatosis mouse models (Table 9).
Acute toxicity tests were performed on C57Bl6 mice, male, 6 weeks old, n=6 for each dose. […] The tests were performed under fed condition, by oral gavage of 100-400 μL compound suspension according to the body weight to desired dosages (mg/kg). The mice were supplied with drinking water all through the testing time. Mouse behaviors were monitored every 15-30 minutes.

C2C12 cells = experiment: Mitochondrial uncoupling activity by oxygen consumption rate (OCR) assay, Seahorse, in presence of oligomycin; type: cell-based, mouse; settings: for minimal effective concentration: Mus musculus, C2C12, in the presence of oligomycin 2.5 μM, read-out: COCR-min: minimal concentration increasing OCR in the presence of oligomycin; for effect on oxygen consumption rate (OCR): in words
In short: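 Mouse C2C12 myoblasts grown in 10% FBS medium had OCR measured on Seahorse XF96/XF24 sequentially: basal, after 2.5 μM oligomycin (final), then after compound at varying concentrations. Rotenone/antimycin A confirmed mitochondrial origin. COCR-min is the minimal compound concentration inducing OCR in the presence of oligomycin.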

[3] = test system: LX-2 cells (human hepatic stellate cells); experiment: Inhibition of TGFβ-induced hepatic stellate cell differentiation into myofibroblast-like cells; type: cell-based; settings: TGFβ 10 ng/ml; for minimal effective concentration: Homo sapiens, LX-2, hepatic stellate cell differentiation to myofibroblast-like cells, 24 hours, read-out: Minimal inhibitory concentration; for inhibition of TGFβ-induced hepatic stellate cell differentiation: in words
Method: Liver fibrosis is one hallmark of NASH. […] This process could be modeled in vitro using the hepatic stellate differentiation experiment. The human hepatic stellate LX-2 cells were cultured within DMEM (Dulbecco's Modified Eagle Media, pH 7.4) supplied with 2% fetal bovine serum, 4.5 g/l glucose and 2 mM glutamine to 100 percent confluence. […] Cellular morphology was then examined under a microscope. As shown in FIG. 16 to FIG. 17, hepatic stellate cells could be induced by TGF-beta to differentiate into myofibroblast-like cells.

[4] = Short-term (10-day) escalating toxicology study in CD-1 mice; type: in vivo, mouse; settings: mouse, in vivo; oral gavage once daily, 10 days, male CD-1 mice; read-out: NOAEL (no-observable-adverse-effect-level)
Method: (§1) Clinical signs, body weights, food consumptions, rectal temperature, hematology, serum chemistry, plasma exposure, necropsies, tissue histopathology, were examined.
(§2) The compound was administered as a homogeneous suspension in 0.5% CMC+1% Tween80 in water in a volume of 10 mL/kg for oral administration. There were two arms in the study: 5 mice in the toxicology group and 5 mice in the toxicokinetic (TK) satellite group. Clinical signs were recorded twice daily. Body weight and food consumption were recorded once daily. Rectal temperature was recorded once every two days for a total of 5 times throughout the study. Necropsies were conducted at the termination of the study. Hematology, serum chemistry, plasma exposure, and tissue distribution were evaluated post 10th dosing in the TK satellite animals. Histopathology was examined in selected organs/tissues. Based on the outcomes of the toxicology parameters, NOAEL (no-observable-adverse-effect-level) and MTD (maximal tolerable dose) were determined.

CD-1 mice = experiment: as above; type: in vivo, mouse; settings: in words
Method: as §1, §2

SMILES	reversing fatty liver (liver steatosis, H&E histology) [1]	reducing blood triglyceride levels and non-HDL cholesterol levels ([1]; 5 mg/kg/day gavage)	effect on mitochondrial membrane potential (MMP) [2]	acute toxicity profile over DNP (C57Bl6 mice)	minimal effective concentration (C2C12 cells) [µM]	effect on oxygen consumption rate (OCR) (C2C12 cells)	minimal effective concentration [3] [µM]	inhibition of TGFβ-induced hepatic stellate cell differentiation [3]	inhibition of TGFβ-induced hepatic stellate cell differentiation ([3]; listed as Compounds 25)	NOAEL at 240 h [4] [mg/kg/day]	short-term safety profile over DNP (CD-1 mice)	inhibition of TGFβ-induced hepatic stellate cell differentiation ([3]; listed as Compound64)
COCCN(CCOC)Cc1cc(Cl)cc(C(=O)Nc2nc3ccc(C(F)(F)F)cc3s2)c1O [Compound 25, 3-((bis(2-methoxyethyl)amino)methyl)-5-chloro-2-hydroxy-N-(6-(trifluoromethyl)benzo[d]thiazol-2-yl)benzamide]	highly efficacious in reversing fatty liver	efficacious	does not cause observable MMP reduction; also recorded: does not appear to reduce MMP over a wide concentration range; also recorded: without reducing MMP	drastically improved acute toxicity profiles over DNP	< 5	very robust OCR induction at 3.0, 6.0, and 9.0 μM; also recorded: effectively uncouples mitochondria (induces OCR	7.5	effectively inhibit the differentiation process; also recorded: prevents TGFβ-induced differentiation of LX-2 cells	able to directly inhibit hepatic stellate cell (HSC) activation in vitro	50	drastically improved short-term safety profiles	
COCCOCc1cc(C(F)(F)F)cc2sc(NC(=O)c3cc(Cl)cc(CN4C[C@@H](C)O[C@@H](C)C4)c3O)nc12 [Compound 64, 5-chloro-3-((cis-2,6-dimethylmorpholino)methyl)-2-hydroxy-N-(4-((2-methoxyethoxy)methyl)-6-(trifluoromethyl)benzo[d]thiazol-2-yl)benzamide]	highly efficacious in reversing fatty liver		minor loss of MMP; also recorded: without significantly decreasing MMP over a wide concentration range; also recorded: without drastically dissipating mitochondrial membrane potential	drastically improved acute toxicity profiles over DNP	< 5	increases OCR	1	effectively inhibit the differentiation process; also recorded: able to directly inhibit hepatic stellate cell (HSC) activation in vitro		40	drastically improved short-term safety profiles	prevents TGFβ-induced differentiation of LX-2 cells
